The source of these data is patent US10004701B2, “Methods and compositions for treating infection” (UNIVERSITY OF ROCHESTER, priority 2012, dated 2018).

Experiment in all cases: AK assay 384-well format, Prestwick library screening
In one assay the test system is E. faecium. Format: cell-based, Enterococcus faecium. As to conditions: Enterococcus faecium, 3 h, 50 μM final drug concentration.
The subject of a further assay is K. pneumoniae. Format: cell-based, Klebsiella pneumoniae. Particulars: Klebsiella pneumoniae, 3 h, 50 μM final drug concentration.
The test system of another assay is E. cloacae. Format: cell-based, Enterobacter cloacae. Particulars: Enterobacter cloacae, 3 h, 50 μM final drug concentration.
For a further assay, the system named is E. coli. Format: cell-based, Escherichia coli. Particulars: Escherichia coli, 3 h, 50 μM final drug concentration.
The subject of a further assay is P. aeruginosa. Format: cell-based, Pseudomonas aeruginosa. Particulars: Pseudomonas aeruginosa, 3 h, 50 μM final drug concentration.
Assay [1] deals with S. aureus strain USA300-0114. Format: cell-based, Staphylococcus aureus. As to conditions: Staphylococcus aureus, USA300, 3 h, 50 μM final drug concentration.
For assay [2], the system named is A. baumannii strain 98-37-09. Format: cell-based, Acinetobacter baumannii. As to conditions: Acinetobacter baumannii, 983709, 3 h, 50 μM final drug concentration.
Setting [3] is: planktonic, cutoff for positive-scoring molecules 3-fold increase, read-out: AK-based Prestwick Library Screening Results, E. faecium (fold increase in extracellular AK activity).
The mark [4] stands for this setting: planktonic, cutoff for positive-scoring molecules 3-fold increase, read-out: AK-based Prestwick Library Screening Results, K. pneumoniae (fold increase in extracellular AK activity).
[5] abbreviates: planktonic, cutoff for positive-scoring molecules 3-fold increase, read-out: AK-based Prestwick Library Screening Results, E. cloacae (fold increase in extracellular AK activity).
The mark [6] stands for this setting: planktonic, cutoff for positive-scoring molecules 3-fold increase, read-out: AK-based Prestwick Library Screening Results, E. coli (fold increase in extracellular AK activity).
The mark [7] stands for this setting: planktonic, cutoff for positive-scoring molecules 3-fold increase, read-out: AK-based Prestwick Library Screening Results, P. aeruginosa (fold increase in extracellular AK activity).
[8] abbreviates: planktonic, cutoff for positive-scoring molecules 3-fold increase, read-out: AK-based Prestwick Library Screening Results, S. aureus (fold increase in extracellular AK activity).
The mark [9] stands for this setting: planktonic, cutoff for positive-scoring molecules 3-fold increase, read-out: AK-based Prestwick Library Screening Results, A. baumannii (fold increase in extracellular AK activity).
The mark [10] stands for this setting: planktonic E. faecium, […], read-out: AK-based Prestwick Library Screening Results, E. faecium (increase in extracellular AK activity).
Where [11] appears, read: planktonic K. pneumoniae, […], read-out: AK-based Prestwick Library Screening Results, K. pneumoniae (increase in extracellular AK activity).
Setting [12] is: planktonic E. cloacae, […], read-out: AK-based Prestwick Library Screening Results, E. cloacae (increase in extracellular AK activity).
Where [13] appears, read: planktonic E. coli, […], read-out: AK-based Prestwick Library Screening Results, E. coli (increase in extracellular AK activity).
The mark [14] stands for this setting: planktonic P. aeruginosa, […], read-out: AK-based Prestwick Library Screening Results, P. aeruginosa (increase in extracellular AK activity).
Setting [15] is: planktonic S. aureus, […], read-out: AK-based Prestwick Library Screening Results, S. aureus (increase in extracellular AK activity).
The mark [16] stands for this setting: planktonic A. baumannii, […], read-out: AK-based Prestwick Library Screening Results, A. baumannii (increase in extracellular AK activity).

Structures can show the parent of a compound that is named as a salt. Where two headings read alike, the source gives them in different places.

As to `C/C=C(/C(=C/C)c1ccc(O)cc1)c1ccc(O)cc1` [Dienestrol], the fold induction at 50 µM was determined as 1.3 with E. faecium (cutoff for positive-scoring molecules 3-fold increase, read-out: AK-based Prestwick Library Screening Results, E. faecium (fold increase in extracellular AK activity)); 0.9 in the assay on K. pneumoniae (cutoff for positive-scoring molecules 3-fold increase, read-out: AK-based Prestwick Library Screening Results, K. pneumoniae (fold increase in extracellular AK activity)); 21.9 with E. cloacae (cutoff for positive-scoring molecules 3-fold increase, read-out: AK-based Prestwick Library Screening Results, E. cloacae (fold increase in extracellular AK activity)); 1.1 in the assay with E. coli (cutoff for positive-scoring molecules 3-fold increase, read-out: AK-based Prestwick Library Screening Results, E. coli (fold increase in extracellular AK activity)); 1.1 in the assay on P. aeruginosa (cutoff for positive-scoring molecules 3-fold increase, read-out: AK-based Prestwick Library Screening Results, P. aeruginosa (fold increase in extracellular AK activity)); 0.4 in assay [1] (cutoff for positive-scoring molecules 3-fold increase, read-out: AK-based Prestwick Library Screening Results, S. aureus (fold increase in extracellular AK activity)). The fold induction at 50 µM in assay [2] (cutoff for positive-scoring molecules 3-fold increase, read-out: AK-based Prestwick Library Screening Results, A. baumannii (fold increase in extracellular AK activity)) was 3.2.
Take `CCN(CC)C(=O)N1CCN(C)CC1` [Diethylcarbamazine citrate]: the fold induction at 50 µM was 1.2 in the assay on E. faecium (planktonic E. faecium, 384-well, cutoff for positive-scoring molecules 3-fold increase, read-out: AK-based Prestwick Library Screening Results: E. faecium (increase in extracellular AK activity)); 0.9 with K. pneumoniae (planktonic K. pneumoniae, 384-well, cutoff for positive-scoring molecules 3-fold increase, read-out: AK-based Prestwick Library Screening Results: K. pneumoniae (increase in extracellular AK activity)); 1.7 in the assay on E. cloacae (planktonic E. cloacae, 384-well, cutoff for positive-scoring molecules 3-fold increase, read-out: AK-based Prestwick Library Screening Results: E. cloacae (increase in extracellular AK activity)); 1.3 in the assay on E. coli (planktonic E. coli, 384-well, cutoff for positive-scoring molecules 3-fold increase, read-out: AK-based Prestwick Library Screening Results: E. coli (increase in extracellular AK activity)); 1.1 in the assay on P. aeruginosa (planktonic P. aeruginosa, 384-well, cutoff for positive-scoring molecules 3-fold increase, read-out: AK-based Prestwick Library Screening Results: P. aeruginosa (increase in extracellular AK activity)); 1.1 in assay [1] (planktonic S. aureus, 384-well, cutoff for positive-scoring molecules 3-fold increase, read-out: AK-based Prestwick Library Screening Results: S. aureus (increase in extracellular AK activity)). Besides, the fold induction at 50 µM in assay [2] (planktonic A. baumannii, 384-well, cutoff for positive-scoring molecules 3-fold increase, read-out: AK-based Prestwick Library Screening Results: A. baumannii (increase in extracellular AK activity)) was determined as 1.1.
As to `CC/C(=C(/CC)c1ccc(O)cc1)c1ccc(O)cc1` [Diethylstilbestrol], the fold induction at 50 µM with E. faecium (setting [3]) stood at 1.1; in the assay with K. pneumoniae (setting [4]), 0.7; in the assay on E. cloacae (setting [5]), 1.4; in the assay with E. coli (setting [6]), 0.9; in the assay on P. aeruginosa (setting [7]), 0.8; in assay [1] (setting [8]) it was 0.6. In assay [2] (setting [9]), the fold induction at 50 µM is 1.8.
On to `CC(=O)OCC(=O)[C@@]1(OC(C)=O)[C@@H](C)C[C@H]2[C@@H]3C[C@H](F)C4=CC(=O)C=C[C@]4(C)[C@@]3(F)[C@@H](O)C[C@@]21C` [Diflorasone Diacetate], for which the fold induction at 50 µM with E. faecium (planktonic, cutoff for positive 3-fold increase, read-out: AK-based Prestwick Library Screening Results, E. faecium (fold increase in extracellular AK activity)) was found to be 1.1; in the assay with K. pneumoniae (planktonic, cutoff for positive 3-fold increase, read-out: AK-based Prestwick Library Screening Results, K. pneumoniae (fold increase in extracellular AK activity)), 1; in the assay with E. cloacae (planktonic, cutoff for positive 3-fold increase, read-out: AK-based Prestwick Library Screening Results, E. cloacae (fold increase in extracellular AK activity)) it was 1.4; with E. coli (planktonic, cutoff for positive 3-fold increase, read-out: AK-based Prestwick Library Screening Results, E. coli (fold increase in extracellular AK activity)), 1.1; in the assay with P. aeruginosa (planktonic, cutoff for positive 3-fold increase, read-out: AK-based Prestwick Library Screening Results, P. aeruginosa (fold increase in extracellular AK activity)), 1; in assay [1] (planktonic, cutoff for positive 3-fold increase, read-out: AK-based Prestwick Library Screening Results, S. aureus (fold increase in extracellular AK activity)), 1.1. Further, the fold induction at 50 µM in assay [2] (planktonic, cutoff for positive 3-fold increase, read-out: AK-based Prestwick Library Screening Results, A. baumannii (fold increase in extracellular AK activity)) came to 0.9.
For the compound `O=C(O)c1cc(-c2ccc(F)cc2F)ccc1O` [Diflunisal], the fold induction at 50 µM in the assay with E. faecium (384-well format, […], read-out: AK-based Prestwick Library Screening Results, E. faecium (increase in extracellular AK activity)) was determined as 0.9; with K. pneumoniae (384-well format, […], read-out: AK-based Prestwick Library Screening Results, K. pneumoniae (increase in extracellular AK activity)), 0.6; in the assay with E. cloacae (384-well format, […], read-out: AK-based Prestwick Library Screening Results, E. cloacae (increase in extracellular AK activity)), 1.2; in the assay on E. coli (384-well format, […], read-out: AK-based Prestwick Library Screening Results, E. coli (increase in extracellular AK activity)), 0.7; in the assay with P. aeruginosa (384-well format, […], read-out: AK-based Prestwick Library Screening Results, P. aeruginosa (increase in extracellular AK activity)), 0.6; in assay [1] (384-well format, […], read-out: AK-based Prestwick Library Screening Results, S. aureus (increase in extracellular AK activity)), 0.6. Also, the fold induction at 50 µM in assay [2] (384-well format, […], read-out: AK-based Prestwick Library Screening Results, A. baumannii (increase in extracellular AK activity)) stood at 0.7.
For `C[C@]12CC[C@H](O)C[C@H]1CC[C@@H]1[C@@H]2CC[C@]2(C)[C@@H](C3=CC(=O)OC3)CC[C@]12O` [Digitoxigenin], the fold induction at 50 µM in the assay with E. faecium (setting [10]) was found to be 0.9; in the assay with K. pneumoniae (setting [11]), 0.7; with E. cloacae (setting [12]), 1.2; with E. coli (setting [13]) it was 0.9; in the assay on P. aeruginosa (setting [14]) it was 0.8; in assay [1] (setting [15]), 0.6. Also, the fold induction at 50 µM in assay [2] (setting [16]) was found to be 0.8.
Take `C[C@]12CC[C@H](O)C[C@H]1CC[C@@H]1[C@@H]2C[C@@H](O)[C@]2(C)[C@@H](C3=CC(=O)OC3)CC[C@]12O` [Digoxigenin]: the fold induction at 50 µM in the assay on E. faecium (setting [3]) is 0.8; with K. pneumoniae (setting [4]), 0.6; in the assay with E. cloacae (setting [5]), 0.7; in the assay with E. coli (setting [6]), 0.7; in the assay on P. aeruginosa (setting [7]) it was 0.5; in assay [1] (setting [8]), 0.6. For the same compound, the fold induction at 50 µM in assay [2] (setting [9]) was 0.6.
With `C[C@H]1O[C@@H](O[C@H]2[C@@H](O)C[C@H](O[C@H]3[C@@H](O)C[C@H](O[C@H]4CC[C@@]5(C)[C@H](CC[C@@H]6[C@@H]5C[C@@H](O)[C@]5(C)[C@@H](C7=CC(=O)OC7)CC[C@]65O)C4)O[C@@H]3C)O[C@@H]2C)C[C@H](O)[C@@H]1O` [Digoxin], the fold induction at 50 µM with E. faecium (setting [10]) amounted to 0.9; in the assay on K. pneumoniae (setting [11]), 0.7; in the assay on E. cloacae (setting [12]), 1.2; with E. coli (setting [13]) it was 0.8; in the assay with P. aeruginosa (setting [14]), 0.8; in assay [1] (setting [15]) it was 0.8. Moreover, in assay [2] (setting [16]), the fold induction at 50 µM turned out to be 0.9.
